US10173988B2, “N2-(3,4-dimethylphenyl)-6-((4-(p-tolyl)piperazin-1-yl)methyl)-1,3,5-triazine-2,4-diamine” (GLUCOX BIOTECH AB, priority 2015, dated 2019)

Assays:
human Nox1 = human Nox1 (Homo sapiens (Human), UniProt Q9Y5S8); assay: Nox1 whole cell luminescence assay (luminol, PMA-stimulated); format: cell-based; settings: CHO cells stably expressing human Nox1
Procedure: CHO cells modified to stably express human Nox1 were grown in DMEM/F12 gibco 31331 containing 10% FBS and 1% pen/strep at 37° C. in air with 5% CO2. Cells were collected from cultures by Trypsin mediated detachment of adherent cells.
A luminescence assay was used that measures the production of reactive oxygen species in whole cells. Luminol reacts with superoxide and emits light and light is measured with luminometer (Synergy/2 microplate reader, BioTek).
Inhibitors were diluted in a compound plate in DMSO (100%) then transferred to Hanks buffer solution and in assay plate DMSO were 2% in all the wells.
Assay procedure, final well volume 100 μl, 96-well plate: Inhibitors (20 μl) were added, then cell suspension was (100 000 cells/well), incubate 37° C. for 30 min, add PMA (0.9 μM/well) to Luminol reaction mix (Luminol 0.1 mM/well and HRP 3.2 U/well) then this stimulation mix into wells. The plate were then immediately read (steps 5 min each reading) and for 1 h. Data was calculated for the linear part of the curve and IC50 determined.
Compounds (Nox inhibitors) were diluted at 3× working concentration and titrated from 200 μM to 0.003 μM in 11 steps

Nox2 = Nox2 (Homo sapiens (Human), UniProt P04839); assay: Nox2 whole cell assay in isolated neutrophils (isoluminol, PMA-stimulated); format: cell-based; settings: PMA 30 ng/ml
Sequence of Nox2 (P04839 2-570): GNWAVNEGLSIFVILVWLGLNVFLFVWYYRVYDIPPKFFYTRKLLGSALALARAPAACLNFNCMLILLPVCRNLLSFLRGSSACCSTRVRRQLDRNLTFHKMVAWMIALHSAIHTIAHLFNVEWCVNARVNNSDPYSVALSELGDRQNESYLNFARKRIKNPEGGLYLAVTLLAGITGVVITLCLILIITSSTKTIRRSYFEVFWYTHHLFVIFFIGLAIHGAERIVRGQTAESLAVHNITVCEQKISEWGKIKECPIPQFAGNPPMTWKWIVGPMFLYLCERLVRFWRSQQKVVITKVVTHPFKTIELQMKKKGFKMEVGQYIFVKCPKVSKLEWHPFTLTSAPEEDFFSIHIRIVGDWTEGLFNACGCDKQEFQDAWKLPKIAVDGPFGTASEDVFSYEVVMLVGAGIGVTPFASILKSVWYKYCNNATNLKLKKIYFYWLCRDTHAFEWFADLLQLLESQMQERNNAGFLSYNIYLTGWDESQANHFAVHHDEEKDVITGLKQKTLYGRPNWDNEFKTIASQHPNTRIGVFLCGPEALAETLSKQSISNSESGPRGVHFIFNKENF
Sequence of Nox2 (P13498 2-195 partner): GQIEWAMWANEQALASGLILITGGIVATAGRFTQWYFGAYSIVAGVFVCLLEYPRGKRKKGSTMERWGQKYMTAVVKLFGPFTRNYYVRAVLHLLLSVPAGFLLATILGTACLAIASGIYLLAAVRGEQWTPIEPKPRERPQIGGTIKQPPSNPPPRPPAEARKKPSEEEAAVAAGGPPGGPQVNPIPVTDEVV
Excerpt: Cells: Human blood was purchased in buffy coat, prepared the same day for isolation of neutrophils, from Labjoy AB, Lund, Sweden. Blood components were separated by density gradient centrifugation using Ficoll-Paque Plus. Plasma, PBMCs and Ficoll were removed before erythrocytes were removed by dextran sedimentation. Remaining erythrocytes were lyses before neutrophils were washed and counted. Isolated neutrophils were kept on ice resuspended in HBSS without Mg and Ca until assayed.
Buffers: The isoluminol buffer contained Isoluminol (0.175 mg/ml) and HRP fraction II (1.75 U/ml). The buffer was prepared by diluting these ingredients at 4× working concentration in HBSS.
Procedures: Compounds (Nox inhibitors) were diluted at 4× working concentration and titrated from 100 μM to 0.006 μM in 1:4 steps. PMA was diluted in Isoluminol buffer at 4× working concentration for a final concentration of 30 ng/ml. […] 25 μl diluted compound or control/well were added to a white 96-well plate. 25 μl/well of PMA diluted in Isoluminol buffer was added to each well. To non-stimulated control wells only Isoluminol buffer was added. Neutrophils were washed and resuspended at 2×10^6 cells/ml in HBSS with Mg and Ca just before adding 50 μl of the neutrophil cell suspension/well, which was followed by immediate initiation of luminescence measurement. Luminescence was measured using a FluoStar Optima (BMG Labtech). Graphs were performed using Prism 5 for Mac OS X (Prism 5.0 Software, San Diego Calif. USA).

Nox4 = Nox4 (Homo sapiens (Human), UniProt Q9NPH5); assay: Nox4 whole cell assay (Amplex red, hydrogen peroxide); format: cell-based; settings: HEK (CJ Nox4) cells stably expressing Nox4
Sequence of Nox4 (Q9NPH5 whole entry, species assumed): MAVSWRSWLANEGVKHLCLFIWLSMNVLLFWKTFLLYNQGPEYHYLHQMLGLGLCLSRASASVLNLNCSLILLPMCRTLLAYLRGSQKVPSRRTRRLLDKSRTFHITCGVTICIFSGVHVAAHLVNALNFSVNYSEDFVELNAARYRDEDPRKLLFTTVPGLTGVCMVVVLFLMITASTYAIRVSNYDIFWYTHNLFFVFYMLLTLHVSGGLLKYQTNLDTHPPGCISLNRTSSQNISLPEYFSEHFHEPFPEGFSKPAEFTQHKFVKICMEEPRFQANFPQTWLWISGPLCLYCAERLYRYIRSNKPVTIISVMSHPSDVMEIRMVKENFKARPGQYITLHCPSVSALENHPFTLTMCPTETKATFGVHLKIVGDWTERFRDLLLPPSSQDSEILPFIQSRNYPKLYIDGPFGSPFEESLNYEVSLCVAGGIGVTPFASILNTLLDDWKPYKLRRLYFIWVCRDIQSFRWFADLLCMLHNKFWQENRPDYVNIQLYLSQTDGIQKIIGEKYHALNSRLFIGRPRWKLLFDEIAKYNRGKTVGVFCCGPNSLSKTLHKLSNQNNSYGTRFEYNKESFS
Sequence of Nox4 (P13498 2-195 partner, species assumed): as the sequence (P13498 2-195 partner) above
Procedure: Cells: HEK (CJ Nox4) stably expressing Nox4 was purchased from Redoxis AB (Lund). The adherent cells were cultivated in RPMI 1640 with L-Glutamine were supplemented with FBS (10%), penicillin (10 U/ml) streptomycin (100 μg/ml) and neomycin (200 μg/ml) at 37° C. in air with 5% CO^2.
Hydrogen peroxide produced by Nox4 was measured (fluorescence emission: 590 and excitation: 544) using Amplex red (Molecular Probes) in Fluorescan Ascent plate reader Type 374. Cells were collected from cultures by Trypsin mediated detachment of adherent cells. Cells were seeded in 96-well plates at a density of 50 000 cells in […] assay volume. […] Nox4 activity was measured up to 100 min with readings every minute. […] Y-axes: turnover of hydrogen peroxide; x-axes: concentration of inhibitor. Inhibitors were diluted in a compound plate in DMSO (100%) then transferred to Hanks buffer solution and in assay plate DMSO were 2% in all the wells.
Compounds (Nox inhibitors) were diluted at 3× working concentration and titrated from 200 μM to 0.003 μM in 11 steps.

[1] = Caco-2 permeability assay; format: in vitro ADME; settings: human, Caco-2; for efflux ratio at 60 min: Papp (b-a) divided by Papp (a-b); for Papp A→B at 60 min: apical to basolateral; for Papp A→B at 60 min / Papp B→A at 60 min: pH 7.4, 37° C., test concentration 1 to 10 μM; for Papp B→A at 60 min: basolateral to apical
Procedure: (§1) Caco-2 membrane permeability was performed in accordance with published protocols. [Hubatch] Caco-2 cell monolayers (passage 94-105) were grown on permeable filter support and used for transport study on day 21 after seeding. Prior to the experiment a drug solution of 10 μM was prepared and warmed to 37° C.
(§2) The Caco-2 filters were washed with prewarmed HBSS prior to the experiment, and thereafter experiment was started by applying the donor solution on the apical side or basolateral side, depending on which direction that was monitored. The transport experiments were carried out at pH 7.4 in both the apical and basolateral chambers. The experiments were performed at 37° C. and with a stirring rate of 500 rpm. The receiver compartment was sampled at 15, 30, and 60 min, and at 60 min also a final sample from the donor chamber was taken in order to calculate the mass balance of the compound. Directly after the termination of experiment the filter inserts were washed with prewarmed HBSS and the membrane integrity was checked. This was performed by trans-epithelial electrical resistance (TEER) measurement. The experiment was validated by inclusion of the para-cellular marker 14Cmannitoland monitoring its permeability during the experiments. Mannitol is a para-cellular marker used for cell monolayer integrity measurements.
(§3) Test compounds were thus added to either the apical or basolateral side of the Caco-2 cell layer, to measure permeability in the absorptive (apical to basolateral, Papp (a-b)) or secretive (basolateral to apical Papp (a-b) directions, respectively. The efflux is calculated as Papp (b-a) divided by Papp (a-b). The results are presented in Table 3.

Caco-2 cell monolayers = assay: Caco-2 permeability assay; format: in vitro ADME; settings: mass balance
Procedure: as §1, §2, §3

Sequence of human Nox1 (Q9Y5S8 whole entry): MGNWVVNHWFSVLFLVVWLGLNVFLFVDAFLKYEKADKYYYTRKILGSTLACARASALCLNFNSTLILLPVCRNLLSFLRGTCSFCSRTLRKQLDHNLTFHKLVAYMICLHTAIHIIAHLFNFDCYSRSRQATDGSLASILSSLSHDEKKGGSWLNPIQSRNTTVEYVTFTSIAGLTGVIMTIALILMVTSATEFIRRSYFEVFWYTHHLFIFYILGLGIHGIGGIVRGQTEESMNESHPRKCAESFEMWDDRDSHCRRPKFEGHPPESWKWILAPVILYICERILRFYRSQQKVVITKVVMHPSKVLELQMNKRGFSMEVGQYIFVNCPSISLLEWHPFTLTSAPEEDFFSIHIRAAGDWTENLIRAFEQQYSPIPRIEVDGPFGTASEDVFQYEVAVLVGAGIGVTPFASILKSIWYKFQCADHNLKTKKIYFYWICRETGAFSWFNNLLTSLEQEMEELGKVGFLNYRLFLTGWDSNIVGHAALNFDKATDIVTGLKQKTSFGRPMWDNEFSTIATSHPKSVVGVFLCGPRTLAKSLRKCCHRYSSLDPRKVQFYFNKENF
Sequence of human Nox1 (P13498 2-195 partner): as the sequence (P13498 2-195 partner) above

Structure (SMILES) | IC50 (human Nox1) | IC50 (Nox2) | IC50 (Nox4) | efflux ratio at 60 min [1] | Papp A→B at 60 min [1] | Papp B→A at 60 min [1] | MR (Caco-2 cell monolayers; a-b direction) | MR (Caco-2 cell monolayers; b-a direction)
Cc1cccc(N2CCN(Cc3nc(N)nc(Nc4ccc(C)c(C)c4)n3)CC2)c1 [C, N^2-(3,4-dimethylphenyl)-6-((4-(m-tolyl)piperazin-1-yl)methyl)-1,3,5-triazine-2,4-diamine] | 162 µM | 59 µM | 1680 nM | 37 | 2.4 ± 0.1 ×10⁻⁶ cm/s | 89 ± 27 ×10⁻⁶ cm/s | 37% | 67%
Cc1ccc(Nc2nc(N)nc(CN3CCN(c4ccc(Cl)cc4)CC3)n2)cc1C [D, 6-((4-(4-chlorophenyl)piperazin-1-yl)methyl)-N^2-(3,4-dimethylphenyl)-1,3,5-triazine-2,4-diamine] | 200 µM | 15 µM | 1680 nM | 17 | 1.9 ± 0.2 ×10⁻⁶ cm/s | 33 ± 11 ×10⁻⁶ cm/s | 40% | 16%
Cc1ccc(N2CCN(Cc3nc(N)nc(Nc4ccc(C)c(C)c4)n3)CC2)cc1 [inventive, N^2-(3,4-dimethylphenyl)-6-((4-(p-tolyl)piperazin-1-yl)methyl)-1,3,5-triazine-2,4-diamine] | 66 µM | – | – | – | 12 ± 1.6 ×10⁻⁶ cm/s | 43 ± 5.8 ×10⁻⁶ cm/s | 13% | 14%

Now from value to molecule:

IC50 (human Nox1) | IC50 (Nox2) | IC50 (Nox4) | efflux ratio at 60 min [1] | Papp A→B at 60 min [1] | Papp B→A at 60 min [1] | MR (Caco-2 cell monolayers; a-b direction) | MR (Caco-2 cell monolayers; b-a direction) | Structure (SMILES)
66 µM | 1.68 µM | 1680 nM | 1 | 35 ± 4 ×10⁻⁶ cm/s | 34 ± 4 ×10⁻⁶ cm/s | 17% | 12% | COc1cccc(N2CCN(Cc3nc(N)nc(Nc4ccc(C)c(C)c4)n3)CC2)c1 [A, N^2-(3,4-dimethylphenyl)-6-((4-(3-methoxyphenyl)piperazin-1-yl)methyl)-1,3,5-triazine-2,4-diamine]
22 µM | 17 µM | 840 nM | 54 | 0.8 ± 0.2 ×10⁻⁶ cm/s | 43 ± 5 ×10⁻⁶ cm/s | 41% | 41% | COc1cccc(N2CCN(Cc3nc(N)nc(Nc4ccc(C)c(Cl)c4)n3)CC2)c1 [B, N^2-(3-chloro-4-methylphenyl)-6-((4-(3-methoxyphenyl)piperazin-1-yl)methyl)-1,3,5-triazine-2,4-diamine]
